Experimental findings from ChEMBL document CHEMBL1759836, “Microwave assisted one-pot synthesis of highly potent novel isoniazid analogues” (Bioorg Med Chem Lett, 2011) are described below.

≈ marks a conversion by molar mass, not a printed value.

Tested on in the first data set: not listed separately
In words: Cytotoxicity against african green monkey Vero cells after 72 hrs by MTT assay. In kind it is cell-based. To be noted: chlorocebus sabaeus.
Turning to `CC1(C)CC(=O)C2=C(C1)N(NC(=O)c1ccncc1)C1=C(C(=O)CC(C)(C)C1)C2c1ccccc1[N+](=O)[O-]`, the CC50 at 72 h is < 121 µM.
`CC1(C)CC(=O)C2=C(C1)N(NC(=O)c1ccncc1)C1=C(C(=O)CC(C)(C)C1)C2c1ccc(Br)cc1`: the CC50 at 72 h is < 114 µM.
As for `CC1(C)CC(=O)C2=C(C1)N(NC(=O)c1ccncc1)C1=C(C(=O)CC(C)(C)C1)C2c1ccccc1OCc1ccccc1`, the CC50 at 72 h was > 109 µM.
As to `CC1(C)CC(=O)C2=C(C1)N(NC(=O)c1ccncc1)C1=C(C(=O)CC(C)(C)C1)C2c1cccc([N+](=O)[O-])c1`, the CC50 at 72 h was < 121 µM.
On to `CC1(C)CC(=O)C2=C(C1)N(NC(=O)c1ccncc1)C1=C(C(=O)CC(C)(C)C1)C2c1cccc(OCc2ccccc2)c1`, for which the CC50 at 72 h was > 109 µM.
Take `CC1(C)CC(=O)C2=C(C1)N(NC(=O)c1ccncc1)C1=C(C(=O)CC(C)(C)C1)C2c1cccc(C(F)(F)F)c1`: the CC50 at 72 h is > 116 µM.
`NNC(=O)c1ccncc1` [ISONIAZID]: the CC50 at 72 h was > 456 µM.
On to `CC1(C)CC(=O)C2=C(C1)N(NC(=O)c1ccncc1)C1=C(C(=O)CC(C)(C)C1)C2c1ccc(Cl)cc1`, for which the CC50 at 72 h was > 124 µM.
Regarding `CC1(C)CC(=O)C2=C(C1)N(NC(=O)c1ccncc1)C1=C(C(=O)CC(C)(C)C1)C2c1ccc(OCc2ccccc2)cc1`, the CC50 at 72 h is > 109 µM.
As for `CC1(C)CC(=O)C2=C(C1)N(NC(=O)c1ccncc1)C1=C(C(=O)CC(C)(C)C1)C2c1ccc(F)cc1`, the CC50 at 72 h is > 128 µM.
For the compound `CC1(C)CC(=O)C2=C(C1)N(NC(=O)c1ccncc1)C1=C(C(=O)CC(C)(C)C1)C2c1ccccc1Br`, the CC50 at 72 h was > 114 µM.
`CC1(C)CC(=O)C2=C(C1)N(NC(=O)c1ccncc1)C1=C(C(=O)CC(C)(C)C1)C2c1cccc(F)c1`: the CC50 at 72 h is > 128 µM.
Consider `CC1(C)CC(=O)C2=C(C1)N(NC(=O)c1ccncc1)C1=C(C(=O)CC(C)(C)C1)C2c1ccc([N+](=O)[O-])cc1`, for which the CC50 at 72 h was < 121 µM.
Consider `CC1(C)CC(=O)C2=C(C1)N(NC(=O)c1ccncc1)C1=C(C(=O)CC(C)(C)C1)C2c1ccccc1F`, for which the CC50 at 72 h was > 128 µM.
As to `CC1(C)CC(=O)C2=C(C1)N(NC(=O)c1ccncc1)C1=C(C(=O)CC(C)(C)C1)C2c1ccccc1C(F)(F)F`, the CC50 at 72 h is > 116 µM.
Take `CC1(C)CC(=O)C2=C(C1)N(NC(=O)c1ccncc1)C1=C(C(=O)CC(C)(C)C1)C2c1ccc(C(F)(F)F)cc1`: the CC50 at 72 h was > 116 µM.
With `CC1(C)CC(=O)C2=C(C1)N(NC(=O)c1ccncc1)C1=C(C(=O)CC(C)(C)C1)C2c1cccc(Br)c1`, the CC50 at 72 h was < 114 µM.

The next data set relates to Mycobacterium tuberculosis. In words: Antimicrobial activity against Mycobacterium tuberculosis H37Rv by agar dilution method. In kind it is functional.
Conditions: not given
In turn, `COc1ccc(C2C3=C(CC(C)(C)CC3=O)N(NC(=O)c3ccncc3)C3=C2C(=O)CC(C)(C)C3)c(OC)c1OC` showed an MIC of 11.2 µM (≈ 6.25 µg/mL).
On the same count and under the same terms, with `CC1(C)CC(=O)C2=C(C1)N(NC(=O)c1ccncc1)C1=C(C(=O)CC(C)(C)C1)C2c1ccccc1[N+](=O)[O-]` the figure was 0.19 µM (≈ 0.0978 µg/mL).
`CC1(C)CC(=O)C2=C(C1)N(NC(=O)c1ccncc1)C1=C(C(=O)CC(C)(C)C1)C2c1ccccc1O`: the MIC was > 12.9 µM.
Still for that read-out and setting: next, `CC1(C)CC(=O)C2=C(C1)N(NC(=O)c1ccncc1)C1=C(C(=O)CC(C)(C)C1)C2c1ccc(Br)cc1`: 0.73 µM (≈ 0.4 µg/mL).
On the same count and under the same terms, with `CC1(C)CC(=O)C2=C(C1)N(NC(=O)c1ccncc1)C1=C(C(=O)CC(C)(C)C1)C2c1ccccc1OCc1ccccc1` the figure was < 0.17 µM.
As for `CC1(C)CC(=O)C2=C(C1)N(NC(=O)c1ccncc1)C1=C(C(=O)CC(C)(C)C1)C2c1cccc([N+](=O)[O-])c1`, the MIC came to 0.77 µM (≈ 0.396 µg/mL).
Take `CC(C)c1ccc(C2C3=C(CC(C)(C)CC3=O)N(NC(=O)c3ccncc3)C3=C2C(=O)CC(C)(C)C3)cc1`: inhibition of growth (MIC) required 1.52 µM (≈ 0.778 µg/mL).
Take `COc1ccccc1C1C2=C(CC(C)(C)CC2=O)N(NC(=O)c2ccncc2)C2=C1C(=O)CC(C)(C)C2`: inhibition of growth (MIC) required 12.5 µM (≈ 6.25 µg/mL).
Still for that read-out and setting: with `CC1(C)CC(=O)C2=C(C1)N(NC(=O)c1ccncc1)C1=C(C(=O)CC(C)(C)C1)C2c1cccc(OCc2ccccc2)c1` the figure was 0.17 µM (≈ 0.0979 µg/mL); with `CC1(C)CC(=O)C2=C(C1)N(NC(=O)c1ccncc1)C1=C(C(=O)CC(C)(C)C1)C2c1cccc(C(F)(F)F)c1`, 0.18 µM (≈ 0.0968 µg/mL); with `NNC(=O)c1ccncc1` [ISONIAZID], 0.73 µM (≈ 0.1 µg/mL).
On to `CC1(C)CC(=O)C2=C(C1)N(NC(=O)c1ccncc1)C1=C(C(=O)CC(C)(C)C1)C2c1ccc(Cl)cc1`, for which the MIC worked out at 0.79 µM (≈ 0.398 µg/mL).
As to `CC1(C)CC(=O)C2=C(C1)N(NC(=O)c1ccncc1)C1=C(C(=O)CC(C)(C)C1)C2c1ccc(OCc2ccccc2)cc1`, 0.17 µM (≈ 0.0979 µg/mL) was the least that counted as inhibitory (MIC).
On to `CC1(C)CC(=O)C2=C(C1)N(NC(=O)c1ccncc1)C1=C(C(=O)CC(C)(C)C1)C2c1ccc(F)cc1`, for which the MIC came out at 0.2 µM (≈ 0.0975 µg/mL).
The same measure, in the same setting: next, `CC1(C)CC(=O)C2=C(C1)N(NC(=O)c1ccncc1)C1=C(C(=O)CC(C)(C)C1)C2c1ccccc1Br`: 0.18 µM (≈ 0.0987 µg/mL).
Consider `Cc1ccccc1C1C2=C(CC(C)(C)CC2=O)N(NC(=O)c2ccncc2)C2=C1C(=O)CC(C)(C)C2`, for which the lowest concentration to inhibit growth (MIC) was 3.22 µM (≈ 1.56 µg/mL).
As to `Cc1ccc(C2C3=C(CC(C)(C)CC3=O)N(NC(=O)c3ccncc3)C3=C2C(=O)CC(C)(C)C3)cc1`, the MIC came to 6.44 µM (≈ 3.11 µg/mL).
Regarding `CC1(C)CC(=O)C2=C(C1)N(NC(=O)c1ccncc1)C1=C(C(=O)CC(C)(C)C1)C2c1ccc(O)cc1`, the MIC is 12.9 µM (≈ 6.25 µg/mL).
Consider `CC1(C)CC(=O)C2=C(C1)N(NC(=O)c1ccncc1)C1=C(C(=O)CC(C)(C)C1)C2c1cccc(O)c1`, for which the MIC is > 12.9 µM.
With `CC1(C)CC(=O)C2=C(C1)N(NC(=O)c1ccncc1)C1=C(C(=O)CC(C)(C)C1)C2c1cccc(F)c1`, the MIC amounted to 0.41 µM (≈ 0.2 µg/mL).
As for `CC1(C)CC(=O)C2=C(C1)N(NC(=O)c1ccncc1)C1=C(C(=O)CC(C)(C)C1)C2c1ccc([N+](=O)[O-])cc1`, the lowest concentration to inhibit growth (MIC) was 0.77 µM (≈ 0.396 µg/mL).
Same read-out and setting: with `CC1(C)CC(=O)C2=C(C1)N(NC(=O)c1ccncc1)C1=C(C(=O)CC(C)(C)C1)C2c1ccccc1F` the figure was 0.41 µM (≈ 0.2 µg/mL); with `CC1(C)CC(=O)C2=C(C1)N(NC(=O)c1ccncc1)C1=C(C(=O)CC(C)(C)C1)C2c1ccccc1C(F)(F)F`, 0.36 µM (≈ 0.194 µg/mL); with `CC1(C)CC(=O)C2=C(C1)N(NC(=O)c1ccncc1)C1=C(C(=O)CC(C)(C)C1)C2c1ccccc1`, 6.66 µM (≈ 3.13 µg/mL).
The compound `COc1cc(C2C3=C(CC(C)(C)CC3=O)N(NC(=O)c3ccncc3)C3=C2C(=O)CC(C)(C)C3)ccc1O` displayed an MIC of 3.02 µM (≈ 1.56 µg/mL).
In turn, `CC1(C)CC(=O)C2=C(C1)N(NC(=O)c1ccncc1)C1=C(C(=O)CC(C)(C)C1)C2c1ccc(C(F)(F)F)cc1` came in with an MIC of 0.36 µM (≈ 0.194 µg/mL).
The same measure, in the same setting: next, `CC1(C)CC(=O)C2=C(C1)N(NC(=O)c1ccncc1)C1=C(C(=O)CC(C)(C)C1)C2c1cccc(Br)c1`: 0.73 µM (≈ 0.4 µg/mL); `Cc1cccc(C2C3=C(CC(C)(C)CC3=O)N(NC(=O)c3ccncc3)C3=C2C(=O)CC(C)(C)C3)c1`: 6.44 µM (≈ 3.11 µg/mL).
The compound `COc1ccc(C2C3=C(CC(C)(C)CC3=O)N(NC(=O)c3ccncc3)C3=C2C(=O)CC(C)(C)C3)cc1` gave an MIC of 12.5 µM (≈ 6.25 µg/mL).
In turn, `CN(C)c1ccc(C2C3=C(CC(C)(C)CC3=O)N(NC(=O)c3ccncc3)C3=C2C(=O)CC(C)(C)C3)cc1` had an MIC of 6.1 µM (≈ 3.13 µg/mL).

A further data set concerns Mycobacterium tuberculosis. Kind of data set: Antimicrobial activity against multidrug-resisntat Mycobacterium tuberculosis by agar dilution method.
Conditions: not given
In kind it is functional.
Turning to `CC1(C)CC(=O)C2=C(C1)N(NC(=O)c1ccncc1)C1=C(C(=O)CC(C)(C)C1)C2c1ccccc1[N+](=O)[O-]`, the lowest concentration to inhibit growth (MIC) was 1.51 µM (≈ 0.777 µg/mL).
`CC1(C)CC(=O)C2=C(C1)N(NC(=O)c1ccncc1)C1=C(C(=O)CC(C)(C)C1)C2c1ccc(Br)cc1` showed an MIC of 2.84 µM (≈ 1.56 µg/mL).
Regarding `CC1(C)CC(=O)C2=C(C1)N(NC(=O)c1ccncc1)C1=C(C(=O)CC(C)(C)C1)C2c1ccccc1OCc1ccccc1`, 0.69 µM (≈ 0.397 µg/mL) was the least that counted as inhibitory (MIC).
Turning to `CC1(C)CC(=O)C2=C(C1)N(NC(=O)c1ccncc1)C1=C(C(=O)CC(C)(C)C1)C2c1cccc([N+](=O)[O-])c1`, the MIC turned out to be 3.03 µM (≈ 1.56 µg/mL).
Take `CC1(C)CC(=O)C2=C(C1)N(NC(=O)c1ccncc1)C1=C(C(=O)CC(C)(C)C1)C2c1cccc(OCc2ccccc2)c1`: inhibition of growth (MIC) required 1.35 µM (≈ 0.777 µg/mL).
In turn, `CC1(C)CC(=O)C2=C(C1)N(NC(=O)c1ccncc1)C1=C(C(=O)CC(C)(C)C1)C2c1cccc(C(F)(F)F)c1` came in with an MIC of 1.45 µM (≈ 0.779 µg/mL).
In the case of `NNC(=O)c1ccncc1` [ISONIAZID], the MIC turned out to be 45.6 µM (≈ 6.25 µg/mL).
Same read-out and setting: with `CC1(C)CC(=O)C2=C(C1)N(NC(=O)c1ccncc1)C1=C(C(=O)CC(C)(C)C1)C2c1ccc(Cl)cc1` the figure was 1.54 µM (≈ 0.776 µg/mL).
In the case of `CC1(C)CC(=O)C2=C(C1)N(NC(=O)c1ccncc1)C1=C(C(=O)CC(C)(C)C1)C2c1ccc(OCc2ccccc2)cc1`, the MIC came out at 0.69 µM (≈ 0.397 µg/mL).
Compound `CC1(C)CC(=O)C2=C(C1)N(NC(=O)c1ccncc1)C1=C(C(=O)CC(C)(C)C1)C2c1ccc(F)cc1` yielded an MIC of 0.2 µM (≈ 0.0975 µg/mL).
For `CC1(C)CC(=O)C2=C(C1)N(NC(=O)c1ccncc1)C1=C(C(=O)CC(C)(C)C1)C2c1ccccc1Br`, 2.84 µM (≈ 1.56 µg/mL) was the least that counted as inhibitory (MIC).
In the case of `CC1(C)CC(=O)C2=C(C1)N(NC(=O)c1ccncc1)C1=C(C(=O)CC(C)(C)C1)C2c1cccc(F)c1`, it took 0.82 µM (≈ 0.4 µg/mL) to inhibit growth (MIC).
`CC1(C)CC(=O)C2=C(C1)N(NC(=O)c1ccncc1)C1=C(C(=O)CC(C)(C)C1)C2c1ccc([N+](=O)[O-])cc1`: the MIC came to 3.03 µM (≈ 1.56 µg/mL).
Compound `CC1(C)CC(=O)C2=C(C1)N(NC(=O)c1ccncc1)C1=C(C(=O)CC(C)(C)C1)C2c1ccccc1F` came in with an MIC of 1.59 µM (≈ 0.775 µg/mL).
Still for that read-out and setting: with `CC1(C)CC(=O)C2=C(C1)N(NC(=O)c1ccncc1)C1=C(C(=O)CC(C)(C)C1)C2c1ccccc1C(F)(F)F` the figure was 1.45 µM (≈ 0.779 µg/mL); with `CC1(C)CC(=O)C2=C(C1)N(NC(=O)c1ccncc1)C1=C(C(=O)CC(C)(C)C1)C2c1ccc(C(F)(F)F)cc1`, 0.74 µM (≈ 0.398 µg/mL).
`CC1(C)CC(=O)C2=C(C1)N(NC(=O)c1ccncc1)C1=C(C(=O)CC(C)(C)C1)C2c1cccc(Br)c1` yielded an MIC of 2.84 µM (≈ 1.56 µg/mL).

Tested on in another data set: not listed separately
In words: Selectivity index, ratio of CC50 for african green monkey Vero cells to MIC for Mycobacterium tuberculosis H37Rv. In kind it is functional.
Conditions: not given
For the compound `CC1(C)CC(=O)C2=C(C1)N(NC(=O)c1ccncc1)C1=C(C(=O)CC(C)(C)C1)C2c1cccc(C(F)(F)F)c1`, the “Selectivity Index” value is on record as >645.

In general, CC50 refers to the concentration at which the toxic effect on the cells reaches its halfway point. As a reminder, the MIC is the lowest concentration that inhibits growth of the organism.
